#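 Method: 48-hour compound exposure of cells in 96-well plates, five concentrations, linear interpolation of endpoints. TGI marks complete inhibition of growth.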 Activity calls are given as the source filed them. No stated cut-off is given here; in the data, active means GI50 below about 0.43 µM; inactive means the rest.
# How the values were obtained:
# Assay in all cases: NCI-60 cell line screen, 48 h
# [1] = test system: 786-0 renal
# [2] = test system: A549 NSCLC
# [3] = test system: ACHN renal
# [4] = test system: CAKI-1 renal
# [5] = test system: CCRF-CEM leukemia
# [6] = test system: COLO 205 colon
# [7] = test system: DLD-1 colon
# [8] = test system: DMS 114 small cell lung
# [9] = test system: DMS 273 small cell lung
# [10] = test system: EKVX NSCLC
# [11] = test system: HCC-2998 colon
# [12] = test system: HL-60(TB) leukemia
# [13] = test system: HOP-18 NSCLC
# [14] = test system: HOP-62 NSCLC
# [15] = test system: HOP-92 NSCLC
# [16] = test system: HT29 colon
# [17] = test system: IGROV1 ovarian
# [18] = test system: K-562 leukemia
# [19] = test system: KM12 colon
# [20] = test system: KM20L2 colon
# [21] = test system: LOX IMVI melanoma
# [22] = test system: LXFL 529 NSCLC
# [23] = test system: M14 melanoma
# [24] = test system: M19-MEL melanoma
# [25] = test system: MALME-3M melanoma
# [26] = test system: NCI-H23 lung
# [27] = test system: NCI-H460 lung
# [28] = test system: NCI-H522 lung
# [29] = test system: OVCAR-3 ovarian
# [30] = test system: OVCAR-4 ovarian
# [31] = test system: OVCAR-5 ovarian
# [32] = test system: OVCAR-8 ovarian
# [33] = test system: RXF 393 renal
# [34] = test system: RXF-631 renal
# [35] = test system: SF-268 CNS
# [36] = test system: SF-295 CNS
# [37] = test system: SF-539 CNS
# [38] = test system: SK-MEL-2 melanoma
# [39] = test system: SK-MEL-28 melanoma
# [40] = test system: SK-MEL-5 melanoma
# [41] = test system: SK-OV-3 ovarian
# [42] = test system: SN12C renal
# [43] = test system: SNB-75 CNS
# [44] = test system: SW-620 colon
# [45] = test system: TK-10 renal
# [46] = test system: U251 CNS
# [47] = test system: UACC-257 melanoma
# [48] = test system: UACC-62 melanoma
# [49] = test system: UO-31 renal
# [50] = test system: HCT-15 colon
# [51] = test system: MOLT-4 leukemia
# [52] = test system: NCI-H226 lung
# [53] = test system: NCI/ADR-RES ovarian
# [54] = test system: RPMI-8226 leukemia
# [55] = test system: SNB-19 CNS
# [56] = test system: SNB-78 CNS
# [57] = test system: SR leukemia
# [58] = test system: XF 498 CNS
smiles,measurement,setting,value
O=C1/C(=C\c2ccccc2)C2/C(=C\c3ccccc3)C(=O)/C(=C\c3ccccc3)C2/C1=C\c1ccccc1 (stereo not drawn),TGI,[1],2.78 µM
same,TGI,[2],7 µM
same,TGI,[3],5.94 µM
same,TGI,[4],8.17 µM
same,TGI,[5],4.35 µM
same,TGI,[6],2.94 µM
same,TGI,[7],2.85 µM
same,TGI,[8],5.67 µM
same,TGI,[9],3.17 µM
same,TGI,[10],52.7 µM
same,TGI,[11],2.59 µM
same,TGI,[12],4.5 µM
same,TGI,[13],> 100 µM
same,TGI,[14],5.03 µM
same,TGI,[15],4.4 µM
same,TGI,[16],3.7 µM
same,TGI,[17],4.8 µM
same,TGI,[18],> 100 µM
same,TGI,[19],3.54 µM
same,TGI,[20],3.55 µM
same,TGI,[21],1.75 µM
same,TGI,[22],24.9 µM
same,TGI,[23],3.44 µM
same,TGI,[24],3.47 µM
same,TGI,[25],4.36 µM
same,TGI,[26],3.78 µM
same,TGI,[27],4.2 µM
same,TGI,[28],2.09 µM
same,TGI,[29],4.92 µM
same,TGI,[30],3.83 µM
same,TGI,[31],2.82 µM
same,TGI,[32],21.2 µM
same,TGI,[33],3.15 µM
same,TGI,[34],9.68 µM
same,TGI,[35],18.5 µM
same,TGI,[36],5.71 µM
same,TGI,[37],6.81 µM
same,TGI,[38],3.62 µM
same,TGI,[39],8.75 µM
same,TGI,[40],4.7 µM
same,TGI,[41],46.9 µM
same,TGI,[42],4.89 µM
same,TGI,[43],71.2 µM
same,TGI,[44],7.26 µM
same,TGI,[45],19.5 µM
same,TGI,[46],2.43 µM
same,TGI,[47],4.2 µM
same,TGI,[48],4.24 µM
same,TGI,[49],3.32 µM
CC(C)=C1C(=O)C[C@@]2(C)C[C@H]3OC3(C)CC/C=C(/C)CCC12 (stereo partly drawn),outcome,[1],inactive
same,outcome,[2],inactive
same,outcome,[3],inactive
same,outcome,[4],inactive
same,outcome,[5],inactive
same,outcome,[6],inactive
same,outcome,[7],inactive
same,outcome,[8],inactive
same,outcome,[9],inactive
same,outcome,[10],inactive
same,outcome,[11],inactive
same,outcome,[50],inactive
same,TGI,[12],49.2 µM
same,outcome,[12],inactive
same,outcome,[14],inactive
same,outcome,[15],inactive
same,outcome,[16],inactive
same,outcome,[17],inactive
same,outcome,[18],inactive
same,outcome,[19],inactive
same,outcome,[20],inactive
same,outcome,[21],inactive
same,outcome,[22],inactive
same,outcome,[23],inactive
same,outcome,[25],inactive
same,outcome,[51],inactive
same,outcome,[52],inactive
same,outcome,[26],inactive
same,outcome,[27],inactive
same,outcome,[28],inactive
same,TGI,[53],95 µM
same,outcome,[29],inactive
same,outcome,[30],inactive
same,outcome,[31],inactive
same,outcome,[32],inactive
same,outcome,[54],inactive
same,outcome,[33],inactive
same,outcome,[34],inactive
same,outcome,[35],inactive
same,outcome,[36],inactive
same,outcome,[37],inactive
same,outcome,[38],inactive
same,outcome,[41],inactive
same,outcome,[42],inactive
same,outcome,[55],inactive
same,outcome,[43],inactive
same,outcome,[56],inactive
same,outcome,[57],inactive
same,outcome,[44],inactive
same,outcome,[46],inactive
same,outcome,[47],inactive
same,outcome,[48],inactive
same,outcome,[49],inactive
same,outcome,[58],inactive

# — PubChem BioAssay (NCI)
